In patent US11098294B2, “Anti-inflammatory peptides and composition comprising same” (GemVax & KAEL Co., Ltd., priority 2012, dated 2021):

Tests used:
Type in all cases: cell-based
IL-6 = IL-6 secretion measurement (ELISA) in LPS-challenged RAW 264.7 cells; conditions: RAW 264.7 cell, LPS 1 μg/mL, PEP 1 5 μg/ml, 24 hr
Method: (§1) Raw 264.7 macrophage cell (KCBL, 40071) from Korea Cell Bank was maintained in Dulbecco's modified Eagle's medium (DMEM; PAA, Austria) containing 10% fetal bovine serum (FBS; Gibco Laboratories), 100 unit/mL of streptomycin, and penicillin (Gibco Laboratories) at 37° C. with 5% CO2. Raw264.7 cells were seeded into a 96-well plate at a density of 1×10^6 cells/mL and incubated overnight.
(§2) On the following day, the medium was replaced with fresh medium and 5 μg/mL of peptide (obtained as described in Experiment example 1) was added to the cells. After 30 min incubation of cells with the peptide 50 μL of LPS (to a final concentration of 1 μg/mL) was added, and cells were incubated for additional 24 hr. The experimental sample with the induction of inflammatory response was treated with 1 μg/mL mL lipopolysaccharide (LPS; Sigma, USA) and control sample was treated with phosphate buffered saline (PBS; pH 7.2). The supernatant samples from each condition was collected in eppendorf tubes and subjected to further analysis.
To investigate the effect of PEP1 on inhibiting pro-inflammatory cytokine production RAW 264.7 cell were pre-treated with PEP 1 at a concentration of 5 μg/mL challenged with LPS at a concentration of 1 μg/mL, and cells were further incubated for 24 hr. The supernatant samples containing cell culture medium was collected and analyzed for the cytokine levels using ELISA kits (eBioscience, San Diego).
96 wells plates were coated with 100 μl of capture antibodies (diluted in coating buffer to the concentration recommended by manufacturer's protocol) overnight at 4° C. Then, after washing the plates 5 times, 200 μL of assay diluents was added to each well and incubated for 1 hr at room temperature for blocking. […]
Following incubation with the secondary antibody, the plate was washed five times and incubated with 100 μl of avidin-HRP (BD Bioscience) for 30 min at room temperature. […] The reaction was stopped by adding 50 μl of 2N H2SO4 in each well The optical density at 450 nm was measured using a microplate reader. […]

nitric oxide (NO) = test: NO level analysis (Griess reagent) in LPS-stimulated Raw 264.7 cells; conditions: Raw 264.7 cell, LPS 1 μg/mL, PEP 1 0.5 μg/mL
Method: as §1
as §2, with “On the following day, the medium was replaced with fresh medium and 5 μg/mL of peptide (obtained as described in Experiment example 1) was added to the cells.” left out
The level of nitric oxide (NO) was measured in Raw 264.7 cell (1×10^6 cell/ml) using Griess reagent system (Promega, USA). Culture medium of 50 μl was added to a 96-well plate and Griess reagent I […] are added in the same amount. After 10 min incubation of cells with the reagents, the optical density at 540 nm was measured within 30 min using a microplate reader (Molecular Devices, USA). The concentration of NO was calculated by using a standard curve (0˜100 μM) of sodium nitrite.

TNF-α = test: Western blot, TNF-α expression inhibition, LPS-stimulated cells
Method: as §1, §2
(§3) Protein expression level was determined by Western blot analysis. […] The membrane was incubated with ECL (enhanced chemiluminesence) solution (Amersham Life Science Corp., Arlington Heights, Ill., USA), exposed to X-ray, and the level of protein expression was analyzed according to the exposure level shown on the X-ray film.

COX-2 = test: Western blot, COX-2 expression inhibition, LPS-stimulated cells
Method: as §1, §2, §3

HMGB1 = test: Western blot, HMGB1 expression inhibition, LPS-stimulated cells
Method: as §1, §2, §3

[1] = cells treated with both LPS and Pep1

EARPALLTSRLRFIPK [PEP 1]
cytokine IL-6 production % of control (IL-6): 28% | cytokine IL-6 production inhibition % (IL-6): 72% | cytokine IL-6 production inhibition % (IL-6; listed as PEP-1): more than 70% | Decreased NO Expression Level (%) (nitric oxide (NO)): 65% | NO Expression Level of control (%) (nitric oxide (NO)): 35% | NO Expression Level of control (%) (nitric oxide (NO); listed as Pep1): 65% | Cytokine Expression Level (band intensity) % of control TNF-α (TNF-α; LPS 1 μg/ml, PEP 1 5 μg/ml): 25% | decrease of pro-inflammatory cytokine level (TNF-α) (TNF-α; [1]): more than 70% | Cytokine Expression Level (band intensity) % of control COX-2 (COX-2; LPS 1 μg/ml, PEP 1 5 μg/ml): 22% | decrease of pro-inflammatory cytokine level (COX) (COX-2; [1]): more than 70% | Cytokine Expression Level (band intensity) % of control HMGB1 (HMGB1; LPS 1 μg/ml, PEP 1 5 μg/ml): 30% | decrease of pro-inflammatory cytokine level (HMGB1) (HMGB1; [1]): more than 70%
